# Literature values, collected in patent US20050031575A1, “Block copolymers” (priority 2001, published 2005).
# System: solid tumours
# Conditions: micelles ranging in size from 20-60 nm that accumulate in solid tumours
substance,measurement,value
poly(ethylene glycol-aspartate) block copolymer doxorubicin conjugates,antitumour activity,exhibit antitumour activity
